What all share (assay type): ADME
One series has as its target T1, CYP2B6 (Homo sapiens, UniProt P20813).
T1 sequence (P20813 whole entry): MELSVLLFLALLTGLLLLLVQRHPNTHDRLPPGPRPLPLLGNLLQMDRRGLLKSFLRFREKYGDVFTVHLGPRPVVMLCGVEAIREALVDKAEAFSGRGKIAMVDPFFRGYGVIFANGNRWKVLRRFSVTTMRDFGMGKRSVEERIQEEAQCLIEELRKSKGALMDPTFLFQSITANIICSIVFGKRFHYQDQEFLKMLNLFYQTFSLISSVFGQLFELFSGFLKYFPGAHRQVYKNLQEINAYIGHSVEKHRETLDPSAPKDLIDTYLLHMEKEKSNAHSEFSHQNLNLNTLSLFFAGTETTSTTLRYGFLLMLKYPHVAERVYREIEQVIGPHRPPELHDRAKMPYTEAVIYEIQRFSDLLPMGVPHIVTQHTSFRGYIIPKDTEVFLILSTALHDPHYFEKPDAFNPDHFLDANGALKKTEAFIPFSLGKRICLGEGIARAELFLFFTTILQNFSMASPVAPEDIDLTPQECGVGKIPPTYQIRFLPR
Briefly: Inhibition of CYP2B6 in human liver microsomes assessed as enzyme-mediated metabolite formation at 1 uM using bupropion as substrate incubated for 5 mins followed by NADPH addition measured after 30 mins by LC-MS/MS analysis relative to control. Set-up: scale not given: the % may be the effect or the level left. As to conditions: probe bupropion, read-out: Activity.

The target of a further series is T2, CYP2C8 (Homo sapiens, UniProt P10632).
T2 sequence (P10632 whole entry): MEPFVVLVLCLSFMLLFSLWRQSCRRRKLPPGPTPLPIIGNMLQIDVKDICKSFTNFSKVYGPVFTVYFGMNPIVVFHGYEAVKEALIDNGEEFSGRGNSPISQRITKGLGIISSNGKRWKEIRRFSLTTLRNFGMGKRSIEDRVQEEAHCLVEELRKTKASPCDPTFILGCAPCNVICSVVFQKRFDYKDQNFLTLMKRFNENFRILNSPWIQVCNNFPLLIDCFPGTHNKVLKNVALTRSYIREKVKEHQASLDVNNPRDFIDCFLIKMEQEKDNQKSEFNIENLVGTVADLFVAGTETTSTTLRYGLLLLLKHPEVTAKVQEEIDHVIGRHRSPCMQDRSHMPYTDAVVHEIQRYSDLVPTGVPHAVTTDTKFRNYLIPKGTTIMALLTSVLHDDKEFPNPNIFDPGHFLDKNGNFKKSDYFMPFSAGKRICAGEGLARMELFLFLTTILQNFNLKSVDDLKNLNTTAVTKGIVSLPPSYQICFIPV
The series can be described thus: Inhibition of CYP2C8 in human liver microsomes assessed as enzyme-mediated metabolite formation at 30 uM using paclitaxel as substrate incubated for 5 mins followed by NADPH addition measured after 30 mins by LC-MS/MS analysis relative to control. To be noted: probe paclitaxel, read-out: Activity. Set-up: scale not given: the % may be the effect or the level left.

Series [1] addresses T3, CYP2D6 (Homo sapiens, UniProt P10635). Briefly: Inhibition of CYP2D6 in human liver microsomes assessed as enzyme-mediated metabolite formation at 0.3 uM using dextromethorphan as substrate incubated for 5 mins followed by NADPH addition measured after 30 mins by LC-MS/MS analysis relative to control. Set-up: scale not given: the % may be the effect or the level left. To be noted: probe dextromethorphan, read-out: Activity.

Series [2] deals with T3, CYP2D6. Briefly: Inhibition of CYP2D6 in human liver microsomes assessed as enzyme-mediated metabolite formation at 10 uM using dextromethorphan as substrate incubated for 5 mins followed by NADPH addition measured after 30 mins by LC-MS/MS analysis relative to control. Further details: scale not given: the % may be the effect or the level left. To be noted: probe dextromethorphan, read-out: Activity.

A further series deals with CYP2C9 (Homo sapiens, UniProt P11712). The series can be described thus: Inhibition of CYP2C9 in human liver microsomes assessed as enzyme-mediated metabolite formation at 30 uM using diclofenac as substrate preincubated for 20 mins followed by substrate addition measured after 30 mins in presence of NADPH by LC-MS/MS analysis relative to control. Set-up: scale not given: the % may be the effect or the level left. To be noted: probe diclofenac, read-out: Activity.

Series [3] has as its target T3, CYP2D6. Briefly: Inhibition of CYP2D6 in human liver microsomes assessed as enzyme-mediated metabolite formation at 0.1 uM using dextromethorphan as substrate preincubated for 20 mins followed by substrate addition measured after 30 mins in presence of NADPH by LC-MS/MS analysis relative to control. Set-up: scale not given: the % may be the effect or the level left. As to conditions: probe dextromethorphan, read-out: Activity.

The target of a further series is Cytochrome P450 2D6 (Homo sapiens, UniProt P10635). The series can be described thus: Inhibition of CYP2D6 in human liver microsomes using dextromethorphan as substrate preincubated for 20 mins followed by substrate addition measured after 30 mins in presence of NADPH by LC-MS/MS analysis.
The next series addresses CYP3A4 (Homo sapiens, UniProt P08684). Briefly: Inhibition of CYP3A4 in human liver microsomes assessed as enzyme-mediated metabolite formation at 0.3 uM using midazolam as substrate preincubated for 20 mins followed by substrate addition measured after 30 mins in presence of NADPH by LC-MS/MS analysis relative to control. Set-up: scale not given: the % may be the effect or the level left. To be noted: probe midazolam, read-out: Activity.

T3 sequence (P10635 whole entry): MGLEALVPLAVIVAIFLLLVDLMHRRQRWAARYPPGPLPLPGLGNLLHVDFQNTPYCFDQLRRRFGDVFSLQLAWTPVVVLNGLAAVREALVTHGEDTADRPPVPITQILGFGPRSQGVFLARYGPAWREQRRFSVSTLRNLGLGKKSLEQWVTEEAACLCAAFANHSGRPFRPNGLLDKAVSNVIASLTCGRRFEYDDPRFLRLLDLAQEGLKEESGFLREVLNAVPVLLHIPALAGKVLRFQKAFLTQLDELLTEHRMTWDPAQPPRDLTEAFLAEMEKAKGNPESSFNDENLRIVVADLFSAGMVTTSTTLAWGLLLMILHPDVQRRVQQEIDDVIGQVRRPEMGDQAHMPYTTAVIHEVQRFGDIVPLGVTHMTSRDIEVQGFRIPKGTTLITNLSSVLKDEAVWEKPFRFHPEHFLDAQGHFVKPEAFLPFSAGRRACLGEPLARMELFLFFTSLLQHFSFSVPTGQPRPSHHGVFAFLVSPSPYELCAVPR
Chain of Cytochrome P450 2D6 (P10635 whole entry): as above
Chain of CYP3A4 (P08684 whole entry): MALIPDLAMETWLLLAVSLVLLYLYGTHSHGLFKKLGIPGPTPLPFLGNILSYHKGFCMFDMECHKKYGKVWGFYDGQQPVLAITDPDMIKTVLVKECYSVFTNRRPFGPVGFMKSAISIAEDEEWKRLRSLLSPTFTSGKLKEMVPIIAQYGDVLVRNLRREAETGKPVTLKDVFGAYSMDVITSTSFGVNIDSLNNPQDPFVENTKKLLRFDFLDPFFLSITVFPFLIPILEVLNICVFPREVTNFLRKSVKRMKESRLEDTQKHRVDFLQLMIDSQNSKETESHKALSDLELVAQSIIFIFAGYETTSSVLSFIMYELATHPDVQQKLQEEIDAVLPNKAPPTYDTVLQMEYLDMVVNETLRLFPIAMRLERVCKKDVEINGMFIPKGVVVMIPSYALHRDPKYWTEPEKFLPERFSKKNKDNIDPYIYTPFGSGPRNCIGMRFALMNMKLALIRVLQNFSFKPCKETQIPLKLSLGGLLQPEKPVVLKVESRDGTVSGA
Chain of CYP2C9 (P11712 whole entry): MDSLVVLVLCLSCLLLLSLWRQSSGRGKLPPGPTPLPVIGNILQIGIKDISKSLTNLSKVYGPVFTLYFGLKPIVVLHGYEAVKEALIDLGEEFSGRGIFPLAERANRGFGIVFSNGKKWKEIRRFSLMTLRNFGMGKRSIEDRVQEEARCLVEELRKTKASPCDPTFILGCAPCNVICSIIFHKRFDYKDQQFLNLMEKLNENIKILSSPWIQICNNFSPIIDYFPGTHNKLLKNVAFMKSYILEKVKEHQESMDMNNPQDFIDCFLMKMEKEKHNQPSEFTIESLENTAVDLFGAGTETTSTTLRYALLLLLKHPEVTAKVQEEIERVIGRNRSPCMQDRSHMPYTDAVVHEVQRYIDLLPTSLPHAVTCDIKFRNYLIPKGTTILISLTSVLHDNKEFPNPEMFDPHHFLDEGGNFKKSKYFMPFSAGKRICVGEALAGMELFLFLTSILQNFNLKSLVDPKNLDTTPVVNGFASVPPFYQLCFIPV

For `CCCCCCCC(=O)CCc1ccc(O)c(OC)c1`, on CYP2B6, the activity at 0.5 h, 1 µM came to 63.2%. The figures for the activity at 0.5 h, 30 µM on CYP2C8 and at CYP2C9 were 35.5% and 46.9%, respectively. The activity at 0.5 h, 0.3 µM came to 76% on CYP2D6 [1] and 88.9% on CYP3A4. Further, the activity at 0.5 h, 10 µM at CYP2D6 [2] was found to be 60.4%. In addition, at CYP2D6 [3], the activity at 0.5 h, 0.1 µM was 89.5%. For the same molecule, the IC50 on Cytochrome P450 2D6 was more than 30 µM.

These data come from ChEMBL document CHEMBL4007467, “Effects of 6-paradol, an unsaturated ketone from gingers, on cytochrome P450-mediated drug metabolism” (Bioorg Med Chem Lett, 2017).
